Paper PMC8864869, “A short peptide derived from pigment epithelial-derived factor exhibits an angioinhibitory effect” (BMC Ophthalmology, 2022)
Where no end group is shown, it is not given here.

Assays:
[1] = cited from earlier work; for anti-angiogenic and antitumor activities of human PEDF: previous studies
Description: Pigment epithelial-derived factor (PEDF) was initially identified in the culture supernatant of human fetal retinal pigment epithelial cells, with the ability to promote neuronal differentiation of retinoblastoma Y79 cells. […] Presently, full-length PEDF is considered to be less suitable as an anti-angiogenic agent than PEDF-derived active fragments because of several issues, including antigenicity, s ... || Identification of angioinhibitory peptides derived from PEDF may be a promising strategy for improving the treatment of angiogenesis-related diseases. […] Here, we found for the first time that the 7-mer peptide (D64-S70), representing a minimal region within PEDF, reproduced the anti-VEGF effect, comparab ...

RPMI8226 cells [2] = assay type: cell-based, human; conditions: for MTT value, VEGF-induced RPMI8226 cell proliferation: 10 ng/ml VEGF + 25 μM peptide, serum-free medium, solvent-treated/untreated cells set as 100%, three independent experiments
Procedure: Human multiple myeloma cells, RPMI8226 were purchased from Bioresource Collection and Research Center (Hsinchu, Taiwan). Cells were cultivated in RPMI1640 medium supplemented with 10% FBS, 50 μg/ml penicillin, 50 μg/ml streptomycin, and 2 mM L-glutamine at 37 °C in a 5% CO2 atmosphere. Cell viability was determined by an MTT assay. […] MTT stock solution added to medium alone was included as a negative control. Aliquots (450 μl) from each sample were transferred to a new well of a 48-well culture plate, 100 μl DMSO added with thorough mixing, and allowed to react at 37 °C for 20 min before reading the absorbance at 570 nm.

[3] = test system: p53, Bax, p21, cleaved caspase-3; assay: Western blot of p53, Bax, p21 and cleaved caspase-3 in RPMI8226 cells; assay type: cell-based, human; conditions: 10 μM inhibitor pretreatment, then VEGF + 25 μM 7-mer
Description: Cell lysis and SDS–PAGE were as described previously. Antibodies used in this study were for active p38 MAPK and active JNK (Promega, Madison, WI), p38 MAPK/SAPK2, JNK (Upstate Biotechnology, Lake Placid, NY), p53 (Chemicon, Temecula, CA), bax, p21, cleaved caspase-3 and β-actin (Abcam Ltd., Cambridge, UK). Proteins of interest were detected using the appropriate IgG-horseradish peroxidase-linked secondary antibody (Santa Cruz Biotechnology) and enhanced chemiluminescence reagent (Amersham, Arlington Heights, IL). X-ray films were scanned on a model GS-700 Imaging Densitometer (Bio-Rad, Hercules, CA) and analyzed with Labworks 4.0 software. For quantification, blots from at least three independent experiments were used.
Fig. 4 The 7-mer induces JNK signaling to trigger p53/bax/p21^Waf1 expression in RPMI8226 cells. a and b Cell treatments were as described in Fig. 3. Cell lysates were then prepared for western blot analysis of p53, Bax, and p21. Representative blots and densitometric analyses from three independent experiments are shown. ^*P < 0.001 versus 7-mer-treated cells

RPMI8226 cells [4] = assay: Annexin V-FITC/PI double-staining apoptosis assay in RPMI8226 cells; assay type: cell-based, human
Procedure: (§1) Cell apoptosis was examined using a TACS annexin V-FITC kit according to the manufacturer’s instructions for in situ staining. The cell numbers were monitored by counterstaining with Hoechst 33342. Afterward, apoptosis was examined and photographed by a Zeiss epifluorescence microscope (× 100, 10 fields/sample). Images were recorded on Zeiss software.
Fig. 2 The 34-mer and 7-mer induce apoptosis of RPMI8226 cells. a Fluorescence microscopy of annexin V-FITC/PI double staining. Treatment of RPMI8226 cells was as described in Fig. 1. Apoptosis was determined by annexin V-FITC staining (green dots) and double stained with propidium iodide (red dots). A representative of three independent experiments is shown. b The percentage of apoptotic cells was quantified by dividing the number of annexin V-positive cells by the total number of cells counted by phase-contrast light microscopy. Control peptide indicates cells were treated with the 5-mer. Histograms show means ± SD. ^aP < 0.005 versus peptide solvent-treated cells. ^bP < 0.0002 versus VEGF-treated cells. ^cP < 0.001 versus 34-mer-treated cells
Fig. 3 The 7-mer induces JNK signaling to trigger RPMI8226 cell apoptosis. 3 × 10^5 cells were serum starved for 24 h and then exposed to 10 ng/ml VEGF and 25 μM 7-mer for the indicated time periods. a Western blotting was performed to detect the active phosphorylated forms of JNK (p-JNK) and p38 MAPK (p-p38), shown in the upper panels. Antibodies were then stripped and the blots were re-incubated with anti-JNK and anti-p38 MAPK antibodies (lower panels), respectively, to detect the levels of total JNK and p38 MAPK. b Densitometric analyses from three independent experiments are shown. c Cell were pretreated with 10 μM SP600125 or SB203580 for 10 min and then treated as described above for 24 h and apoptosis was quantified using the annexin V-FITC apoptosis detection kit. *P < 0.0001 versus 7-mer-treated cells

HUVECs [5] = assay: Annexin V-FITC apoptosis assay in HUVECs; assay type: cell-based, human; conditions: 0.5% FBS, 16 h
Procedure: (§2) Cells were grown in Medium 200 with LSGS (supplement contains 1.9% fetal bovine serum, 3 ng/ml bFGF, 10 μg/ml heparin, 1 μg/ml hydrocortisone, and 10 ng/ml EGF). Culture plates were coated with 2% gelatin. Cells (passages 4–8) were cultured at 37 °C in a humidified atmosphere of 5% CO2. For peptide treatment, HUVECs were cultured in low serum (0.5% FBS) medium containing 20 ng/ml VEGF and 7-mer peptide (20 μM, unless otherwise specified).
as §1
(§3) The experiment was repeated three times. Magnification is × 40. b The 7-mer induces HUVEC apoptosis in the presence of VEGF. Cell apoptosis was analyzed using the Annexin V-FITC Apoptosis Detection kit according to the in situ staining protocol after treatment for 16 h. Double staining with an annexin V-FITC and the fluorescent dye Hoechst 33342 was used to visualize the apoptotic cells (green) and nuclei (blue), respectively. A representative result of four independent experiments is shown. The percentages of apoptotic cells were quantified. ^aP < 0.005 versus VEGF-treated cells

HUVECs [6] = assay: Endothelial cell capillary-like tube formation assay; assay type: cell-based, human; conditions: 20 ng/ml VEGF, 10 μM 7-mer, matrigel, 0.5% FBS, 6 h
Procedure: as §2
Growth factor-reduced matrigel was pipetted into pre-chilled 24-well plates (150 μl matrigel per well) and polymerized for 45 min at 37 °C. HUVECs (4 × 10^4 per well) in low serum (0.5% FBS) medium were treated with 20 ng/ml VEGF and 7-mer (10 μM) in matrigel coated plates. After 6 h of incubation, tubular structures were photographed. Images were captured using a Cannon camera on a Zeiss inverted microscope with magnification × 40.
as §3, with “A representative result of four independent experiments is shown.” left out

18-mer: PEDF fragment Asn60-Asn77 of previous studies (NFGYDLYRVRSSTSPTTN; UniProt P36955 60-77, looked up, fragment)
neurotrophic activity [1]: no neurotrophic activity
anti-angiogenic and antitumor activities of human PEDF [1]: preserve the anti-angiogenic and antitumor activities of human PEDF

7-mer L65 alanine substitution: 7-mer with single alanine substitution of L65 (DAYRVRS; ends and bridges not checked; UniProt P36955 64-70, looked up, variant L65A)
MTT value, VEGF-induced RPMI8226 cell proliferation (RPMI8226 cells [2]; 24 h, mean ± SD): 74 ± 0.9%

Oc1c2ccccc2c2c3c(cccc13)N=N2 [SP600125, reference compound]
7-mer-induced increases of p53, bax, p21 and cleaved caspase-3 after inhibitor pretreatment [3]: significantly inhibited
7-mer-induced RPMI8226 cell apoptosis after inhibitor pretreatment (RPMI8226 cells [4]; 10 μM inhibitor for 10 min, then 10 ng/ml VEGF + 25 μM 7-mer for 24 h, 7-mer alone 38.6 ± 2.1%): 11.6 ± 1.5%

23-mer: PEDF fragment A55-N77 of previous studies (AAAVSNFGYDLYRVRSSTSPTTN; UniProt P36955 55-77, looked up, fragment)
anti-angiogenic and antitumor activities of human PEDF [1]: devoid of PEDF activity

D64N/L65V double mutant of the 7-mer: 7-mer with D64N/L65V double mutation (NVYRVRS; ends and bridges not checked; UniProt P36955 64-70, looked up, variant D64N L65V)
MTT value, VEGF-induced RPMI8226 cell proliferation (RPMI8226 cells [2]; 24 h, mean ± SD): 117 ± 4.1%

34-mer: PEDF amino acid positions Asp44-Asn77, N-acetylated, C-amidated (Ac-DPFFKVPVNKLAAAVSNFGYDLYRVRSSTSPTTN-NH2; UniProt P36955 44-77, looked up, fragment) [reference compound]
cytotoxic effect on RPMI8226 cells in the absence of VEGF (RPMI8226 cells [2]): neither peptide had a significant cytotoxic effect
MTT value, VEGF-induced RPMI8226 cell proliferation (RPMI8226 cells [2]; 24 h, mean ± SD): 84 ± 4.0%
dose dependence of cell viability of VEGF-treated RPMI8226 cells (RPMI8226 cells [2]; 1, 5, 10 and 25 μM peptide with VEGF, MTT): cell viability decreased significantly with the 34-mer treatment at 10 and 25 μM, but not at 1 and 5 μM
neurotrophic activity [1]: no neurotrophic activity
anti-angiogenic and antitumor activities of human PEDF [1]: preserve the anti-angiogenic and antitumor activities of human PEDF
apoptotic HUVECs (annexin V-FITC) (HUVECs [5]; 20 ng/ml VEGF + peptide (20 μM), four independent experiments): 20.1 ± 4.4%
VEGF-stimulated tube-like network of HUVECs (HUVECs [6]): marked decrease of the VEGF-stimulated tube-like network
apoptotic (annexin V+) RPMI8226 cells (RPMI8226 cells [4]; 10 ng/ml VEGF + 25 μM peptide, 24 h, serum-free, early + late apoptosis, mean ± SD, three independent experiments): 25.1 ± 2.2%

7-mer D64 alanine substitution: 7-mer with single alanine substitution of D64 (ALYRVRS; ends and bridges not checked; UniProt P36955 64-70, looked up, variant D64A)
MTT value, VEGF-induced RPMI8226 cell proliferation (RPMI8226 cells [2]; 24 h, mean ± SD): 69 ± 3.5%

VEGF
MTT value, RPMI8226 cells with VEGF alone (RPMI8226 cells [2]; 10 ng/ml VEGF without peptide, 24 h, untreated cells set as 100%, mean ± SD): 120 ± 3.9%
apoptotic HUVECs, VEGF-treated only (HUVECs [5]; 20 ng/ml VEGF): 6.3 ± 1.6%
apoptotic (annexin V+) RPMI8226 cells with VEGF alone (RPMI8226 cells [4]; 10 ng/ml VEGF, serum-free, serum deprivation alone 14.0 ± 1.7%): 6.5 ± 1.1%

B1: PEDF: a 50 kDa secreted glycoprotein (protein, UniProt P36955 20-418, looked up)
Pigment epithelium-derived …: QNPASPPEEGSPDPDSTGALVEEEDPFFKVPVNKLAAAVSNFGYDLYRVRSSTSPTTNVLLSPLSVATALSALSLGAEQRTESIIHRALYYDLISSPDIHGTYKELLDTVTAPQKNLKSASRIVFEKKLRIKSSFVAPLEKSYGTRPRVLTGNPRLDLQEINNWVQAQMKGKLARSTKEIPDEISILLLGVAHFKGQWVTKFDSRKTSLEDFYLDEERTVRVPMMSDPKAVLRYGLDSDLSCKIAQLPLTGSMSIIFFLPLKVTQNLTLIEESLTSEFIHDIDRELKTVQAVLTVPKLKLSYEGEVTKSLQEMKLQSLFDSPDFSKITGKPIKLTQVEHRAGFEWNEDGAGTTPSPGLQPAHLTFPLDYHLNQPFIFVLRDTDTGALLFIGKILDPRGP
MTT value, VEGF-induced RPMI8226 cell proliferation (RPMI8226 cells [2]; 24 h, mean ± SD): 93 ± 3.8%
